Laboratory results: ChEMBL document CHEMBL4825673, “Total and Semisyntheses of Polymyxin Analogues with 2-Thr or 10-Thr Modifications to Decipher the Structure-Activity Relationship and Improve the Antibacterial Activity” (J Med Chem, 2021)
In brackets after ≈: the same amount, converted by molar mass.

Tests used:
Pseudomonas aeruginosa [1] = experiment: Antibacterial activity against Pseudomonas aeruginosa assessed as inhibition of bacterial growth incubated for 24 hrs by broth microdilution method; assay type: functional; conditions: read-out: MIC100
Acinetobacter baumannii = experiment: Antibacterial activity against Acinetobacter baumannii assessed as inhibition of bacterial growth incubated for 24 hrs by broth microdilution method; assay type: functional; conditions: read-out: MIC100
Klebsiella pneumoniae = experiment: Antibacterial activity against Klebsiella pneumoniae assessed as inhibition of bacterial growth incubated for 24 hrs by broth microdilution method; assay type: functional; conditions: read-out: MIC100
HK-2 = experiment: Cytotoxicity against human HK-2 cells assessed as cell viability incubated for 72 hrs by CCK-8 assay; assay type: cell-based; conditions: hk-2, 72 h
Escherichia coli = experiment: Antibacterial activity against Escherichia coli assessed as inhibition of bacterial growth incubated for 24 hrs by broth microdilution method; assay type: functional; conditions: read-out: MIC100
Moraxella catarrhalis = experiment: Antibacterial activity against Moraxella catarrhalis assessed as inhibition of bacterial growth incubated for 24 hrs by broth microdilution method; assay type: functional; conditions: read-out: MIC100
Pseudomonas aeruginosa [2] = experiment: Antibacterial activity against Pseudomonas aeruginosa PAO1 assessed as inhibition of bacterial growth incubated for 24 hrs by broth microdilution method; assay type: functional; conditions: read-out: MIC100

Row | Structure (SMILES) | MIC (Pseudomonas aeruginosa [1]) | MIC (Acinetobacter baumannii) | MIC (Klebsiella pneumoniae) | MIC (Escherichia coli) | MIC (Moraxella catarrhalis) | MIC (Pseudomonas aeruginosa [2]) | Activity (HK-2)
1 | CC[C@H](C)CCCCC(=O)N[C@@H](CCN)C(=O)N[C@H](C(=O)N[C@@H](CCN)C(=O)N[C@H]1CCNC(=O)[C@H]([C@@H](C)OC(=O)[C@@H](N)CC(=O)O)NC(=O)[C@H](CCN)NC(=O)[C@H](CCN)NC(=O)[C@H](CC(C)C)NC(=O)[C@@H](Cc2ccccc2)NC(=O)[C@H](CCN)NC1=O)[C@@H](C)OC(=O)[C@@H](N)CC(=O)O |  |  |  |  |  | 4 µg/mL (≈ 2.79 µM) | Non-Toxic
2 | CCCCCCCC(=O)N[C@@H](CCN)C(=O)N[C@H](C(=O)N[C@@H](CCN)C(=O)N[C@H]1CCNC(=O)[C@H](CCC(N)=O)NC(=O)[C@H](CCN)NC(=O)[C@H](CCN)NC(=O)[C@H](CC(C)C)NC(=O)[C@@H](Cc2ccccc2)NC(=O)[C@H](CCN)NC1=O)[C@@H](C)O |  |  |  |  |  | 32 µg/mL (≈ 26.3 µM) | Non-Toxic
3 | CC[C@H](C)CCCCC(=O)N[C@@H](CCN)C(=O)N[C@H](C(=O)N[C@@H](CCN)C(=O)N[C@H]1CCNC(=O)[C@H]([C@@H](C)OC(=O)[C@@H](N)CCCCN)NC(=O)[C@H](CCN)NC(=O)[C@H](CCN)NC(=O)[C@H](CC(C)C)NC(=O)[C@@H](Cc2ccccc2)NC(=O)[C@H](CCN)NC1=O)[C@@H](C)OC(=O)[C@@H](N)CCCCN |  |  |  |  |  | 4 µg/mL (≈ 2.74 µM) | Non-Toxic
4 | CC[C@H](C)CCCCC(=O)N[C@@H](CCN)C(=O)N[C@H](C(=O)N[C@@H](CCN)C(=O)N[C@H]1CCNC(=O)[C@H]([C@@H](C)O)NC(=O)[C@H](CCN)NC(=O)[C@H](CCN)NC(=O)[C@H](CC(C)C)NC(=O)[C@@H](Cc2ccccc2)NC(=O)[C@H](CCN)NC1=O)[C@@H](C)OC(=O)[C@@H](N)CCC(N)=O |  |  |  |  |  |  | Non-Toxic
5 | CC(C)CCCCC(=O)N[C@@H](CCN)C(=O)N[C@H](C(=O)N[C@@H](CCN)C(=O)N[C@H]1CCNC(=O)[C@H]([C@@H](C)O)NC(=O)[C@H](CCN)NC(=O)[C@H](CCN)NC(=O)[C@H](CC(C)C)NC(=O)[C@@H](Cc2ccccc2)NC(=O)[C@H](CCN)NC1=O)C(C)C | 0.5 µg/mL (≈ 0.421 µM) | 16 µg/mL (≈ 13.5 µM) | > 16 µg/mL | 8 µg/mL (≈ 6.74 µM) | 8 µg/mL (≈ 6.74 µM) | 4 µg/mL (≈ 3.37 µM) | 

Continued, in another order:

Row | MIC (Pseudomonas aeruginosa [1]) | MIC (Acinetobacter baumannii) | MIC (Klebsiella pneumoniae) | MIC (Escherichia coli) | MIC (Moraxella catarrhalis) | MIC (Pseudomonas aeruginosa [2]) | Structure (SMILES) | Activity (HK-2)
6 | 0.25 µg/mL (≈ 0.19 µM) | 0.125 µg/mL (≈ 0.0948 µM) | 0.5 µg/mL (≈ 0.379 µM) | 0.25 µg/mL (≈ 0.19 µM) | > 32 µg/mL | 2 µg/mL (≈ 1.52 µM) | CC[C@H](C)CCCCC(=O)N[C@@H](CCN)C(=O)N[C@H](C(=O)N[C@@H](CCN)C(=O)N[C@H]1CCNC(=O)[C@H]([C@@H](C)O)NC(=O)[C@H](CCN)NC(=O)[C@H](CCN)NC(=O)[C@H](CC(C)C)NC(=O)[C@@H](Cc2ccccc2)NC(=O)[C@H](CCN)NC1=O)[C@@H](C)OC(=O)[C@@H](N)CC(=O)O | Non-Toxic
7 | 0.5 µg/mL (≈ 0.388 µM) | 1 µg/mL (≈ 0.776 µM) | 4 µg/mL (≈ 3.1 µM) | 0.5 µg/mL (≈ 0.388 µM) | > 32 µg/mL | 2 µg/mL (≈ 1.55 µM) | CC(C)CCCCC(=O)N[C@@H](CCN)C(=O)N[C@H](C(=O)N[C@@H](CCN)C(=O)N[C@H]1CCNC(=O)[C@H]([C@@H](C)O)NC(=O)[C@H](CCN)NC(=O)[C@H](CCN)NC(=O)[C@H](CC(C)C)NC(=O)[C@@H](Cc2ccccc2)NC(=O)[C@H](CCN)NC1=O)[C@@H](C)OC(=O)[C@@H](N)C(C)C | 
8 | 0.25 µg/mL (≈ 0.201 µM) | 0.06 µg/mL (≈ 0.0481 µM) | 1 µg/mL (≈ 0.802 µM) | 0.25 µg/mL (≈ 0.201 µM) | > 16 µg/mL | 2 µg/mL (≈ 1.6 µM) | CC(C)CCCCC(=O)N[C@@H](CCN)C(=O)N[C@H](C(=O)N[C@@H](CCN)C(=O)N[C@H]1CCNC(=O)[C@H]([C@@H](C)O)NC(=O)[C@H](CCN)NC(=O)[C@H](CCN)NC(=O)[C@H](CC(C)C)NC(=O)[C@@H](Cc2ccccc2)NC(=O)[C@H](CCN)NC1=O)[C@@H](C)OC(=O)CN | 
9 | 0.125 µg/mL (≈ 0.102 µM) | 2 µg/mL (≈ 1.64 µM) | > 64 µg/mL | 4 µg/mL (≈ 3.28 µM) | 8 µg/mL (≈ 6.56 µM) | 2 µg/mL (≈ 1.64 µM) | CCCCCCCC(=O)N[C@@H](CCN)C(=O)N[C@@H](CCSC)C(=O)N[C@@H](CCN)C(=O)N[C@H]1CCNC(=O)[C@H]([C@@H](C)O)NC(=O)[C@H](CCN)NC(=O)[C@H](CCN)NC(=O)[C@H](CC(C)C)NC(=O)[C@@H](Cc2ccccc2)NC(=O)[C@H](CCN)NC1=O | 
10 | 0.25 µg/mL (≈ 0.208 µM) | 2 µg/mL (≈ 1.66 µM) | 1 µg/mL (≈ 0.832 µM) | 1 µg/mL (≈ 0.832 µM) | 8 µg/mL (≈ 6.66 µM) | 2 µg/mL (≈ 1.66 µM) | CC(C)CCCCC(=O)N[C@@H](CCN)C(=O)N[C@@H](CC(C)C)C(=O)N[C@@H](CCN)C(=O)N[C@H]1CCNC(=O)[C@H]([C@@H](C)O)NC(=O)[C@H](CCN)NC(=O)[C@H](CCN)NC(=O)[C@H](CC(C)C)NC(=O)[C@@H](Cc2ccccc2)NC(=O)[C@H](CCN)NC1=O | 
11 | 0.125 µg/mL (≈ 0.104 µM) | 2 µg/mL (≈ 1.66 µM) | > 32 µg/mL | 8 µg/mL (≈ 6.64 µM) | > 32 µg/mL | 1 µg/mL (≈ 0.83 µM) | CC(C)C[C@@H]1NC(=O)[C@@H](Cc2ccccc2)NC(=O)[C@H](CCN)NC(=O)[C@@H](NC(=O)[C@H](CCN)NC(=O)[C@@H](NC(=O)[C@H](CCN)NC(=O)CCCCCCCN)[C@@H](C)O)CCNC(=O)[C@H]([C@@H](C)O)NC(=O)[C@H](CCN)NC(=O)[C@H](CCN)NC1=O | 
